From patent US11136301B2, “Broad spectrum antiviral compounds and uses thereof” (The Regents Of The University Of California, priority 2015, dated 2021)
Read-outs that look alike come from different tables or passages of the source.

Columns and labels:
[1] = tested on: wild-type HIV-1 (HIV-1LAI) in MT-4 cells (permissive); assay: Antiviral activity assay: wild-type HIV-1 in permissive MT4 cells, reverse transcriptase activity in culture supernatants; assay type: cell-based
[2] = tested on: wild-type HIV-1 (HIV-1LAI) in H9 cells (non-permissive); assay: microbe, parasite or virus in culture; assay type: cell-based
[3] = Human immunodeficiency virus 1, MT4, Table 2, wild-type HIV-1, permissive MT4 cells, read-out: Antiviral activity (IC50 μM) MT4
[4] = Human immunodeficiency virus 1, MT4, wild-type HIV-1 (HIV-1LAI), MT4 cells (permissive), RT activity in culture supernatants, compounds 1 to 50 μM, read-out: Antiviral activity (IC50 μM) MT4 cells
[5] = Human immunodeficiency virus 1, H9, read-out: Antiviral activity (IC50 μM) H9, Table 2, wild-type HIV-1, non-permissive H9 cells
[6] = Human immunodeficiency virus 1, H9, read-out: Antiviral activity (IC50 μM) H9 cells, Table 5, wild-type HIV-1, non-permissive H9 cells
[7] = Human immunodeficiency virus 1, H9, read-out: Antiviral activity (IC50 μM) H9 cells, Table 8, wild-type HIV-1, non-permissive H9 cells
[8] = Human immunodeficiency virus 1, H9, read-out: Antiviral activity (IC50 μM) H9 cells, wild-type HIV-1 (HIV-1LAI), H9 cells (non-permissive), RT activity in culture supernatants, compounds 1 to 50 μM
[9] = Human immunodeficiency virus 1, H9, read-out: Antiviral activity (IC50 μM) H9 Cells, Table 4, wild-type HIV-1, non-permissive H9 cells
[10] = Human immunodeficiency virus 1, H9, read-out: Antiviral activity (IC50 μM) H9 Cells, Table 7, wild-type HIV-1, non-permissive H9 cells
[11] = Human immunodeficiency virus 1, H9, read-out: IC50, anti-HIV-1 activity, non-permissive H9 cells

Row | SMILES | IC50 [1, 3] | IC50 [1, 4] | IC50 [2, 5] | IC50 [2, 6] | IC50 [2, 7] | IC50 [2, 8] | IC50 [2, 9] | IC50 [2, 10] | IC50 [2, 11]
1 | COc1ccc(S(=O)(=O)c2ccccc2-c2cn(-c3c(F)cccc3OC)nn2)cc1 [Compound 7cy, 1-(2-Fluoro-6-methoxyphenyl)-4-(2-((4-methoxyphenyl)sulfonyl)phenyl)-1H-1,2,3-triazole] | > 50 µM | > 50 µM | > 50 µM | > 50 µM | > 50 µM | > 50 µM | – | – | –
2 | COc1ccc(OC)c(-n2cc(-c3ccccc3Sc3ccc(C(=O)O)cc3)nn2)c1 [Compound 5fx, 4-((2-(1-(2,5-Dimethoxyphenyl)-1H-1,2,3-triazol-4-yl)phenyl)thio)benzoic Acid] | > 50 µM | > 50 µM | 4.5 µM | 4.5 µM | 4.5 µM | 4.5 µM | 4.5 µM | 4.5 µM | –
3 | COc1ccc(Sc2ccccc2-c2cn(-c3cc(OC)ccc3OC)nn2)cc1 [Compound 5cx, 1-(2,5-Dimethoxyphenyl)-4-(2-((4-methoxyphenyl)thio)phenyl)-1H-1,2,3-triazole] | > 50 µM | > 50 µM | 15.7 µM | 15.7 µM | 15.7 µM | 15.7 µM | 15.7 µM | 15.7 µM | –
4 | COc1ccccc1-n1cc(-c2ccccc2S(=O)(=O)c2ccc(C(=O)O)cc2)nn1 [Compound 2fy, 4-((2-(1-(2-Methoxyphenyl)-1H-1,2,3-triazol-4-yl)phenyl)sulfonyl)benzoic acid] | > 50 µM | > 50 µM | 8.2 µM | 8.2 µM | 8.2 µM | 8.2 µM | 8.2 µM | 8.2 µM | –
5 | COc1cccc(F)c1-n1cc(-c2ccccc2Sc2ccc(N)cc2)nn1 [Compound 7ex, 4-((2-(1-(2-Fluoro-6-methoxyphenyl)-1H-1,2,3-triazol-4-yl)phenyl)thio)aniline] | > 50 µM | > 50 µM | > 50 µM | > 50 µM | > 50 µM | > 50 µM | – | – | –
6 | COc1cccc(-n2cc(-c3ccccc3Sc3ccc(C(=O)O)cc3)nn2)c1OC [Compound 3fx, 4-((2-(1-(2,3-Dimethoxyphenyl)-1H-1,2,3-triazol-4-yl)phenyl)thio)benzoic Acid] | > 50 µM | > 50 µM | 2.8 µM | 2.8 µM | 2.8 µM | 2.8 µM | 2.8 µM | 2.8 µM | 1 to 3 µM
7 | COc1cccc(F)c1-n1cc(-c2ccccc2Sc2ccc([N+](=O)[O-])cc2)nn1 [Compound 7ax, 1-(2-Fluoro-6-methoxyphenyl)-4-(2-((4-nitrophenyl)thio)phenyl)-1H-1,2,3-triazole] | > 50 µM | > 50 µM | 3.9 µM | 3.9 µM | 3.9 µM | 3.9 µM | 3.9 µM | 3.9 µM | –
8 | COc1cccc(OC)c1-n1cc(-c2ccccc2Sc2ccc(C(=O)O)cc2)nn1 [Compound 6fx, 4-((2-(1-(2,6-Dimethoxyphenyl)-1H-1,2,3-triazol-4-yl)phenyl)thio)benzoic Acid] | > 50 µM | > 50 µM | 1.9 µM | 1.9 µM | 1.9 µM | 1.9 µM | 1.9 µM | 1.9 µM | 1 to 3 µM
9 | COc1cccc(-n2cc(-c3ccccc3Sc3ccc(C(F)(F)F)cc3)nn2)c1OC [Compound 3dx, 1-(2,3-Dimethoxyphenyl)-4-(2-((4-(trifluoromethyl)phenyl)thio)phenyl)-1H-1,2,3-triazole] | > 50 µM | > 50 µM | 1.9 µM | 1.9 µM | 1.9 µM | 1.9 µM | 1.9 µM | 1.9 µM | 1 to 3 µM
